Measured values from patent publication US20230141783A1, “DIFFERENT FORMS OF 6-CHLORO-2-ETHYL-N-(4-(4-(4-(TRIFLUOROMETHOXY)PHENYL)PIPERIDINE-1-YL)BENZYL)IMIDAZO[1,2-A]PYRIDINE-3-CARBOXAMIDE” (priority 2019, published 2023).
Where “and” joins values, the source holds several entries; their conditions need not be identical. Equal entries are not always repeated. Entries after “also recorded” stand apart in the source; their conditions may differ. Where two headings read alike, the source gives them in different places.

What was measured:
[1] = Humidity stress of generated salts (75% relative humidity, 7 days, XRPD); assay type: physicochemical; settings: test for deliquescence, sample stressed for several days under 75% RH
Description: Approximately 25 mg of generated salts of […] were added to vials and placed unsealed into a 75% relative humidity chamber (sealed cabinets with relative humidity conditions controlled by super-saturated salt solutions) at ambient temperature for 7 days prior to analysis by XRPD.

[2] = Solubility estimation by aliquot addition and Clarity temperature cycling
DVS water absorption = assay type: physicochemical; settings: 90% RH at RT
Source text: (FIGS. 4-5). It is the predominant form obtained in slurry experiments. Conversion from Form A to other XRPD patterns was mainly obtained from methanol (to Form C) or water (to pattern B) in the slurry medium. However, as it will be shown in further sections, Form C is converted to Form A upon re-slurry in the majority of other solvents (than methanol).
FIGS. 9 to 11 show XRPD, DSC, and TGA of a solid with Form C. […] The XRPD peaks of pattern C are sharper than those of Form A. Form C is the predominant form when methanol is used as the slurry medium. However, Form “C” is not a methanol solvate form of the di-tosylate salt. Many reactive crystallization experiments using different solvents generated Form C immediately after salt formation.

[3] = Exposing Forms A and C in 100% RH at RT (XRPD/DSC); assay type: physicochemical; settings: 100% RH at RT for 6 days
Source text: Forms A and C were exposed in 100% RH environment at RT for 6 days; the solids were subsequently analyzed using DSC and XRPD.
In FIGS. 1 and 17, the XRPD of sample of Form A (previous obtained form EA and IPA/MEK) before and after 6 days exposure to 100% RH are sketched. FIGS. 19 and 20 show the DSC scan of the same samples after exposure. […] FIGS. 18 and 21 show the result of the same treatment for Form C.

[4] = Long-term stability at 25° C./60% RH (HPLC); assay type: physicochemical; settings: 25° C. and 60% RH for up to 60 months; ditosylate
[5] = Stability under accelerated conditions 40° C./75% RH (HPLC); assay type: physicochemical; settings: 40° C. and 75% RH up to 6 months
[6] = pH 4.5 buffer, pull time 23 hrs
[7] = pH 6.8 buffer, pull time 22.5 hrs
[8] = pH 7.5 buffer, pull time 72 hrs

Compound: CCc1nc2ccc(Cl)cn2c1C(=O)NCc1ccc(N2CCC(c3ccc(OC(F)(F)F)cc3)CC2)cc1.Cl [Type 36]
- solid form after slurrying in buffer (XRPD) (all buffers tested (pH 1, 4.5, 6.8, 7.5), listed as Type 36 HCl salt): converted to new type HCl salt Type 56

Compound: CCc1nc2ccc(Cl)cn2c1C(=O)NCc1ccc(N2CCC(c3ccc(OC(F)(F)F)cc3)CC2)cc1.Cc1ccc(S(=O)(=O)O)cc1.Cc1ccc(S(=O)(=O)O)cc1 [Pat A]
- RH stress (20C/75RH) [1]: stable
- RH stress (20C/75RH) ([1]; 20C): stable
- Aq. Sol ([2]; approximate values by aliquot addition on unbuffered water): <0.38 mg/mL
- Aq. Sol ([2]; approximate values measured by aliquot addition in unbuffered water): <0.38 mg/mL

Compound: CCc1nc2ccc(Cl)cn2c1C(=O)NCc1ccc(N2CCC(c3ccc(OC(F)(F)F)cc3)CC2)cc1.Cl [HCl salt, Type 36]
- XRPD of solid isolated after pH solubility experiment (pH 1 buffer, pull time 24 hrs): T56 HCl salt crystalline
- HPLC concentration based on avg std [6]: 0.000323 mg/mL and 0.000307 mg/mL
- XRPD of solid isolated after pH solubility experiment [6]: T56 HCl salt crystalline
- HPLC concentration based on avg std [7]: 0.000285 mg/mL and 0.000277 mg/mL
- XRPD of solid isolated after pH solubility experiment [7]: T56 HCl salt crystalline
- HPLC concentration based on avg std [8]: 3.28e-05 mg/mL and 3.57e-05 mg/mL
- XRPD of solid isolated after pH solubility experiment [8]: T56 HCl salt crystalline

Compound: CCc1nc2ccc(Cl)cn2c1C(=O)NCc1ccc(N2CCC(c3ccc(OC(F)(F)F)cc3)CC2)cc1.Cl [HCl salt, 6-chloro-2-ethyl-N-(4-(4-(4-(trifluoromethoxy)phenyl)piperidine-1-yl)benzyl)imidazo[1,2-a]pyridine-3-carboxamide mono-hydrochloride]
- solid form after slurrying in buffer (XRPD) (all buffers tested (pH 1, 4.5, 6.8, 7.5), listed as HCl, mono-hydrochloride): Type 56
- solid form after slurrying in buffer (XRPD) (all buffers tested (pH 1, 4.5, 6.8, 7.5), mono-hydrochloride): no conversion to the free base was observed
- solubility in comparison to the di-tosylate salt (pH 1): better solubility

Compound: CCc1nc2ccc(Cl)cn2c1C(=O)NCc1ccc(N2CCC(c3ccc(OC(F)(F)F)cc3)CC2)cc1.O=P(O)(O)O [Phosphate salt, Type 37]
- XRPD of solid isolated after pH solubility experiment (pH 1): T56 HCl salt v. disordered
- HPLC concentration based on avg std (pH 1 buffer, pull time 24 hrs): 5.33 mg/mL and 5.64 mg/mL
- XRPD of solid isolated after pH solubility experiment (pH 4.5): Type 28 disordered
- HPLC concentration based on avg std [6]: 0.000384 mg/mL and 0.000336 mg/mL
- XRPD of solid isolated after pH solubility experiment (pH 6.8): Type 28 disordered
- HPLC concentration based on avg std [7]: 0.00028 mg/mL and 0.000297 mg/mL
- XRPD of solid isolated after pH solubility experiment (pH 7.5): Type 28 disordered
- HPLC concentration based on avg std [8]: 6.39e-05 mg/mL and 4.1e-05 mg/mL

Compound: CCc1nc2ccc(Cl)cn2c1C(=O)NCc1ccc(N2CCC(c3ccc(OC(F)(F)F)cc3)CC2)cc1 [Type 28]
- solubility (pH 4.5 and above): < 0.00037 mg/mL

Compound: CCc1nc2ccc(Cl)cn2c1C(=O)NCc1ccc(N2CCC(c3ccc(OC(F)(F)F)cc3)CC2)cc1.Cc1ccc(S(=O)(=O)O)cc1.Cc1ccc(S(=O)(=O)O)cc1 [Ditosylate]
- HPLC concentration based on avg std (pH 1, client result): 1.45 (client result) mg/ml

Compound: CCc1nc2ccc(Cl)cn2c1C(=O)NCc1ccc(N2CCC(c3ccc(OC(F)(F)F)cc3)CC2)cc1.Cc1ccc(S(=O)(=O)O)cc1.Cc1ccc(S(=O)(=O)O)cc1 [Form C]
- water absorption (DVS) (DVS water absorption): less than 0.3%
- crystalline form after exposure to 100% RH [3]: maintains its crystalline form; also recorded: crystal structure does not change

Compound: CCc1nc2ccc(Cl)cn2c1C(=O)NCc1ccc(N2CCC(c3ccc(OC(F)(F)F)cc3)CC2)cc1.Cl [Type 56]
- solubility (pH 1 buffer, room temperature): ~ 5.58 mg/mL

Compound: CCc1nc2ccc(Cl)cn2c1C(=O)NCc1ccc(N2CCC(c3ccc(OC(F)(F)F)cc3)CC2)cc1.Cc1ccc(S(=O)(=O)O)cc1.Cc1ccc(S(=O)(=O)O)cc1 [6-chloro-2-ethyl-N-(4-(4-(4-(trifluoromethoxy)phenyl)piperidine-1-yl)benzyl)imidazo[1,2-a]pyridine-3-carboxamide ditosylate]
- long-term storage stability [4]: stable
- stability under accelerated conditions [5]: stable

Compound: CCc1nc2ccc(Cl)cn2c1C(=O)NCc1ccc(N2CCC(c3ccc(OC(F)(F)F)cc3)CC2)cc1.O=P(O)(O)O [phosphate salt, 6-chloro-2-ethyl-N-(4-(4-(4-(trifluoromethoxy)phenyl)piperidine-1-yl)benzyl)imidazo[1,2-a]pyridine-3-carboxamide mono-phosphate]
- solid form after slurrying in buffer (XRPD) (all buffers tested (pH 1, 4.5, 6.8, 7.5)): not stable
- solubility in comparison to the di-tosylate salt (low pH, especially around pH1): better solubility
- solid form after slurrying in buffer (XRPD) (pH 1 buffer, listed as Phosphate salt, mono-phosphate): converted to HCl Type 56
- solid form after slurrying in buffer (XRPD) (pH 1 buffer, mono-phosphate): converted to a new HCl salt, Type 56
- solid form after slurrying in buffer (XRPD) (pH 4.5 and above): converted to freebase

Compound: CCc1nc2ccc(Cl)cn2c1C(=O)NCc1ccc(N2CCC(c3ccc(OC(F)(F)F)cc3)CC2)cc1.Cc1ccc(S(=O)(=O)O)cc1 [pTSA salt, Type 20]
- HPLC concentration based on avg std (pH 1 buffer, pull time 24 hrs): 0.33 mg/mL and 0.32 mg/mL
- XRPD of solid isolated after pH solubility experiment (pH 1 buffer, pull time 24 hrs): p-TSA salt T20 crystalline
- HPLC concentration based on avg std [6]: 0.000366 mg/mL and 0.000333 mg/mL
- XRPD of solid isolated after pH solubility experiment [6]: Type 28 disordered
- HPLC concentration based on avg std [7]: 0.000312 mg/mL and 0.000307 mg/mL
- XRPD of solid isolated after pH solubility experiment [7]: Type 28 disordered
- XRPD of solid isolated after pH solubility experiment [8]: Type 28 disordered
